Targets include Cytochrome P450 2C9 (Homo sapiens, UniProt P11712); Cytochrome P450 2D6 (Homo sapiens, UniProt P10635); Cytochrome P450 3A4 (Homo sapiens, UniProt P08684).
Another series concerns the target Cytochrome P450 2C19 (Homo sapiens, UniProt P33261). Nature of the series: Cytochrome panel assay with activity outcomes. Panel member name: p450-cyp2c19 Compounds with AC50 equal or less than 10 uM are considered active. In kind it is functional. The following applies: read-out: AC50.
Series [1] addresses T1, Heat shock factor protein 1 (Mus musculus, UniProt P38532).
T1 sequence (P38532 whole entry): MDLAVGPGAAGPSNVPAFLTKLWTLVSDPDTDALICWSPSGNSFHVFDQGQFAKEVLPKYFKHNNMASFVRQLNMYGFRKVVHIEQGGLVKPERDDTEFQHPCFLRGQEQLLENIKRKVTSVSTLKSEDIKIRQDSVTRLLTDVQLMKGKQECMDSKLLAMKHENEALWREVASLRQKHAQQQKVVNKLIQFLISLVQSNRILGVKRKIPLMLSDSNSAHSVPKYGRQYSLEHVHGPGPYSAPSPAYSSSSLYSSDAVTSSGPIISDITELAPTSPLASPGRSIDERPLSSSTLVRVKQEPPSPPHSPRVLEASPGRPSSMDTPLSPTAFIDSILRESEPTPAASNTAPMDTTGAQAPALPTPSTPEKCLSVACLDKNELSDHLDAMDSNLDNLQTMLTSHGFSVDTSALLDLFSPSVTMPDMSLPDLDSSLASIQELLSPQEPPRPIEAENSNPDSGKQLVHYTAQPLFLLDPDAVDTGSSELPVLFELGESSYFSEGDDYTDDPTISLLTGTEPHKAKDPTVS
Nature of the series: HSF1 potentiators in luciferase reporter cells, confirmation, cell-based, NIH3T3, luminescence, dose retest (AID 435004).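 Further: stress induced by proteasome inhibitor MG132 added 30 min after compound; luciferase reporter driven by HSF1 response element in NIH3T3 cells; actives raise luminescence as potentiators of the MG132 stress response.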 In kind it is functional.

Another series deals with T2, Coagulation factor XII (Homo sapiens, UniProt P00748).
T2 sequence (P00748 whole entry): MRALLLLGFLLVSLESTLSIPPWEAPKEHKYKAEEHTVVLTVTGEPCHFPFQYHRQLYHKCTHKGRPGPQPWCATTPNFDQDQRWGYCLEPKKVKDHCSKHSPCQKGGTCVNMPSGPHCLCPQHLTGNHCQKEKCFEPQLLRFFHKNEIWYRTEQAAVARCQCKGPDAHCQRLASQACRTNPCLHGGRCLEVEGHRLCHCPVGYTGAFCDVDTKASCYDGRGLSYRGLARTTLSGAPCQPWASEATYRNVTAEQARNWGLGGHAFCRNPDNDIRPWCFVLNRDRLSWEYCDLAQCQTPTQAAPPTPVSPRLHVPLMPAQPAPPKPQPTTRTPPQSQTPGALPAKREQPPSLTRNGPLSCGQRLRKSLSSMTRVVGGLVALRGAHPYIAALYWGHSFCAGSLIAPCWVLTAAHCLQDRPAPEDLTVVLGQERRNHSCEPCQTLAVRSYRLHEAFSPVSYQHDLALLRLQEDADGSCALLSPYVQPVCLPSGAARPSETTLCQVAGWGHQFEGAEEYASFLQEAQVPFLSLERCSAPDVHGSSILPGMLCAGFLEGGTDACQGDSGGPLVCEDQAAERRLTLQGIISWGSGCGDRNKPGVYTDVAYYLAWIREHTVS
In kind it is functional.

The target of another series is T3, Cytochrome P450 1A2 (Homo sapiens, UniProt P05177).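 Further: PubChem cytochrome P450 panel assay, CYP1A2 panel member.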
T3 sequence (P05177 whole entry): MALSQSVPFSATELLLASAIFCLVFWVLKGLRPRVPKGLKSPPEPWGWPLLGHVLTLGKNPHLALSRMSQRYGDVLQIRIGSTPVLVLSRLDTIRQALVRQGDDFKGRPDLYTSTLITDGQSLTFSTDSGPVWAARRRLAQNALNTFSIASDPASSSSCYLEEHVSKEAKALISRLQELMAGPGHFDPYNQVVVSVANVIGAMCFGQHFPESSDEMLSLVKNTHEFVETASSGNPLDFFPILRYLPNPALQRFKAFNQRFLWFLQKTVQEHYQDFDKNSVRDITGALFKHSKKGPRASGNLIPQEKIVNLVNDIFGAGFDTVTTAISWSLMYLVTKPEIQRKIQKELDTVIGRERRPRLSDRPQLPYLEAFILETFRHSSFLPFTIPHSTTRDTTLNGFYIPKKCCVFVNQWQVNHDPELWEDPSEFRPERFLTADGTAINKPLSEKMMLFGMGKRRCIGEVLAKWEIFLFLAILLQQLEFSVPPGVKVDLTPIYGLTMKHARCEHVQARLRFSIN

In series [2] the target is Heat shock protein HSP 90-alpha (Homo sapiens, UniProt P07900). It counts as functional, organism-based.
The target in series [3] is Luciferin 4-monooxygenase (Photinus pyralis, UniProt P08659). Kind of series: firefly luciferase enzyme inhibitors, dose response, biochemical, luminescence (AID 1891).
The next series has as its target T4, Protein RecA (Mycobacterium tuberculosis, UniProt P9WHJ3).
T4 sequence (P9WHJ3 whole entry): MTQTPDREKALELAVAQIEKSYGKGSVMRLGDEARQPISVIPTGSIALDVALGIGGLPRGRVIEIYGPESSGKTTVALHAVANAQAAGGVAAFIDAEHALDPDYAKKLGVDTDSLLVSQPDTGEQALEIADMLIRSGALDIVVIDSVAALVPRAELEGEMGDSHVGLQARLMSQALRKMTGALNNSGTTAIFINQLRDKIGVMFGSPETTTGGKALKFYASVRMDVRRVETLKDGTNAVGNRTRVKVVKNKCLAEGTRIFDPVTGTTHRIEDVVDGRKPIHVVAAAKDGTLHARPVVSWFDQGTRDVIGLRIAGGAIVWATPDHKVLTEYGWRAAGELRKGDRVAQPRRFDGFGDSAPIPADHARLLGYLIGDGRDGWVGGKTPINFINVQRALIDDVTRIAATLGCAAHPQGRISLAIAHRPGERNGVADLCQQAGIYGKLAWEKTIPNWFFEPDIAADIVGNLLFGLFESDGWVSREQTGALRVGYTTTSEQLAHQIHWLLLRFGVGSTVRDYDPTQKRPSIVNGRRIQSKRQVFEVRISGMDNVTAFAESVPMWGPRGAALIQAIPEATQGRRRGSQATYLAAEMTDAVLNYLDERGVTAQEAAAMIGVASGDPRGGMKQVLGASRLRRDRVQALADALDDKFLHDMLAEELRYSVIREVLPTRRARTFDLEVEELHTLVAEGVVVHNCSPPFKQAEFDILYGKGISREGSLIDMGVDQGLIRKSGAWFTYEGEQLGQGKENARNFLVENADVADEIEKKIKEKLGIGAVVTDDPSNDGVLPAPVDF
Kind of series: Fluorescence Cell-Free Homogeneous Dose Retest to Identify Inhibitors of RecA-Intein Splicing Activity. [Related pubchem assays (depositor defined):AID2097, AID2223, AID489010, AID492950]. It counts as functional.

Series [4] is described as follows: Luminescence Cell-Based Dose Confirmation HTS to Identify Inhibitors of Platelet Dense Granule Release. [Related pubchem assays: 1663 (Primary HTS), 1678 (Summary of Project)]. It counts as functional.
In series [5] the target is T5, Replicative DNA helicase DnaB (Mycobacterium tuberculosis, UniProt P9WMR3).
T5 sequence (P9WMR3 whole entry): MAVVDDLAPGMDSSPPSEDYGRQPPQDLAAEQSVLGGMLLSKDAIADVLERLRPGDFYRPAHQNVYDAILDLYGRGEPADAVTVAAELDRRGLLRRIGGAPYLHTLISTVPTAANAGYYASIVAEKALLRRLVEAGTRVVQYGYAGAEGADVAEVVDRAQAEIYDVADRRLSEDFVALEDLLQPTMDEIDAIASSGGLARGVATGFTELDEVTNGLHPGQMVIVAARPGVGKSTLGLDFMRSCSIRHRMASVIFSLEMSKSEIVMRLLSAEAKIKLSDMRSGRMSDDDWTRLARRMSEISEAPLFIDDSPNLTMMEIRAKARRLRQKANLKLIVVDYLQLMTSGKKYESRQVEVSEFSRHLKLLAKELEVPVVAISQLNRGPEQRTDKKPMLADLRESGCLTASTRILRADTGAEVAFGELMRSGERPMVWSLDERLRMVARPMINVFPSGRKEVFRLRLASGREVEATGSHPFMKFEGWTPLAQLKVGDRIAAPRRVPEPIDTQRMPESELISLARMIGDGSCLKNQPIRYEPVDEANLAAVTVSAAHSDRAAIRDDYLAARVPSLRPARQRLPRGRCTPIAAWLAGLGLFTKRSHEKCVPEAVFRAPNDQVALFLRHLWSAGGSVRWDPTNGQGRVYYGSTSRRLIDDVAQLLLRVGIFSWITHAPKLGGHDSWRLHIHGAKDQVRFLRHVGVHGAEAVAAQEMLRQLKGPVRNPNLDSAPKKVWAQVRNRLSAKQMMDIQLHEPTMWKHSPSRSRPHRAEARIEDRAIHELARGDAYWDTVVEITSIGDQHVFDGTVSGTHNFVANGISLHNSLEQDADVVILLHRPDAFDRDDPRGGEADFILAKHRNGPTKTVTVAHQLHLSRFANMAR
Nature of the series: DnaB intein splicing inhibitors, dose response, biochemical, cell-free fluorescence (AID 449749). In kind it is functional.

Structures are written as SMILES. Active and inactive are the calls of the source.
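Wherever IC50 is given: activated factor XIIa alpha cleaving a fluorogenic AMC peptide substrate; inhibitor potency from loss of enzyme activity.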

Chain of Cytochrome P450 2C9 (P11712 whole entry): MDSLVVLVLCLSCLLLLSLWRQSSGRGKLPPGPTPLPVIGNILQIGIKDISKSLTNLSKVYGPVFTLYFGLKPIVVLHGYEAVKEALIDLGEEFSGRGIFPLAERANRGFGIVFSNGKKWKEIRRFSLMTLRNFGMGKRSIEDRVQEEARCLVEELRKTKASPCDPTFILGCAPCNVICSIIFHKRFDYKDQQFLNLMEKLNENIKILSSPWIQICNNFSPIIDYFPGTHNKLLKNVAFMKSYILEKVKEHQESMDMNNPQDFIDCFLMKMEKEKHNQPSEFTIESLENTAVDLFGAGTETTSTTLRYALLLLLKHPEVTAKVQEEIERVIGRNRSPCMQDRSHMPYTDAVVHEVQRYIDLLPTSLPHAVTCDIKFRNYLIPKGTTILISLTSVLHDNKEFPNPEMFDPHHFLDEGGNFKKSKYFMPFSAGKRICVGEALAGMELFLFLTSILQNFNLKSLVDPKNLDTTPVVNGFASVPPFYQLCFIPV
Chain of Cytochrome P450 2D6 (P10635 whole entry): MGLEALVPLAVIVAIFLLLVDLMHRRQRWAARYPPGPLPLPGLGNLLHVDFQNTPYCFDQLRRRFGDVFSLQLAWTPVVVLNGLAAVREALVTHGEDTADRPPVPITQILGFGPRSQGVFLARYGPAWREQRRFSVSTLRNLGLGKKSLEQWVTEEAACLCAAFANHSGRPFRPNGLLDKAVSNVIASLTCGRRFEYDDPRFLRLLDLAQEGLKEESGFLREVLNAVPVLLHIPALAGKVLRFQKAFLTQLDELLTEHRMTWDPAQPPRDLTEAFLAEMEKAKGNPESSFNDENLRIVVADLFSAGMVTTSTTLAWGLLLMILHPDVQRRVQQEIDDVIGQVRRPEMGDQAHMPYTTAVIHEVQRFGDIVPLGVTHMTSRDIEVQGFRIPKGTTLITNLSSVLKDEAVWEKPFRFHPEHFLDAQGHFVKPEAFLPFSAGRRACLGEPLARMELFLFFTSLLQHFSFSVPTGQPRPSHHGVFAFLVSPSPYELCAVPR
Chain of Cytochrome P450 2C19 (P33261 whole entry): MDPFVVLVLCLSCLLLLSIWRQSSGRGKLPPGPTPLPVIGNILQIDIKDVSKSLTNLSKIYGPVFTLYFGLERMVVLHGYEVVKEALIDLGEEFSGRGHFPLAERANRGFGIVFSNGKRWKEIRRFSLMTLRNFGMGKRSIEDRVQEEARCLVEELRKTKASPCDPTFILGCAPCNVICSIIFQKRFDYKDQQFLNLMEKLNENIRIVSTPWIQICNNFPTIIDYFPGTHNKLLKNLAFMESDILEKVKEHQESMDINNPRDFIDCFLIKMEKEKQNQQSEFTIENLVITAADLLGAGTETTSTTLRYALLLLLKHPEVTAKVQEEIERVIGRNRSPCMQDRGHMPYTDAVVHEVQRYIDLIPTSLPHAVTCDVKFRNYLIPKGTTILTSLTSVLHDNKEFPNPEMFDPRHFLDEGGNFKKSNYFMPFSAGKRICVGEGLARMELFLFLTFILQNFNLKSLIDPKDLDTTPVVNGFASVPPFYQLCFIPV
Chain of Luciferin 4-monooxygenase (P08659 whole entry): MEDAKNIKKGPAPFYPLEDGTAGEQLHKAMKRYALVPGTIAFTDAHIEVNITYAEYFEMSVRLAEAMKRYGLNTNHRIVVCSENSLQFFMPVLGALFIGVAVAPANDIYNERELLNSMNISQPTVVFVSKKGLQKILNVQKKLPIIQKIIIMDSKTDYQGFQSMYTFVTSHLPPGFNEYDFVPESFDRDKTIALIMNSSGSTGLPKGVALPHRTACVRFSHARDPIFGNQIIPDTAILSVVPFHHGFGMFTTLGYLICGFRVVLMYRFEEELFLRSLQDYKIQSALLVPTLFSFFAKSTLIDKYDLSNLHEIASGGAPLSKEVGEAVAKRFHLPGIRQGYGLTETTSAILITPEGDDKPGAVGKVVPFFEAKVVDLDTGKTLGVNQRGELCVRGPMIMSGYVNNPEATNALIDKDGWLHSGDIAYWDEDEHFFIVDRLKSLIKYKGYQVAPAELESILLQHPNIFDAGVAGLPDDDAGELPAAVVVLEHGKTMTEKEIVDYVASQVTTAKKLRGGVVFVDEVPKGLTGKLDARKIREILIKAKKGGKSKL
Chain of Cytochrome P450 3A4 (P08684 whole entry): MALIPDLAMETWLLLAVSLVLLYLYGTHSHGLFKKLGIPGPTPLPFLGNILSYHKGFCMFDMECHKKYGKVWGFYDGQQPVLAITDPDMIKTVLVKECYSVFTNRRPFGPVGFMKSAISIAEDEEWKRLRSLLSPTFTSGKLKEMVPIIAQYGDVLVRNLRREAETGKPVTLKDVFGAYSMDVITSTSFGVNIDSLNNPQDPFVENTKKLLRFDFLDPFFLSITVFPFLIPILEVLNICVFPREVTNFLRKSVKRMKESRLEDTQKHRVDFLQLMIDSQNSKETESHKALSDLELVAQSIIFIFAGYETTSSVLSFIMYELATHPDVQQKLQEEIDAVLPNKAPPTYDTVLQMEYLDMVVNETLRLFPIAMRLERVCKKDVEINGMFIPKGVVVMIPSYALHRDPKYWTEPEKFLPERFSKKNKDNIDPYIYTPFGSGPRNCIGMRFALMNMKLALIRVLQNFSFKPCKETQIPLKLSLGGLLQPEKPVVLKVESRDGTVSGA

Regarding `CN(C)c1ccc(-c2nc(N(C)C)c3ccccc3n2)cc1`, the figures for the half-maximal activity concentration (AC50) on Cytochrome P450 2C19 and at Cytochrome P450 2C9 were 39.8 µM (inconclusive) and “inconclusive”, respectively. For `C=CCOc1ccccc1OC[C@H](O)CNC(C)C` [OXPRENOLOL], the AC50 was 7.94 µM (inconclusive) at Cytochrome P450 2D6 and “inconclusive” on Cytochrome P450 2C9.

With `CCOC(=O)CC(NC(=O)C1c2ccccc2Oc2ccccc21)c1ccccc1Cl` (stereo not given), in series [1], the EC50 was > 260 µM (inactive). Take `COc1ccc2c(c1)CCc1sc(NC(=O)c3ccc(C)cc3)nc1-2`: the IC50 on Coagulation factor XII was > 50 µM (inactive). As to `CCOc1ccccc1NC(=O)C1Cc2ccccc2CN1S(C)(=O)=O` (stereo not given), the AC50 result on Cytochrome P450 2C9 is “inconclusive”; at Cytochrome P450 1A2, 39.8 µM (inconclusive). Take `Cc1cc(C)c2cc(C(=O)N(C)C3CCN(C)CC3)[nH]c2c1`: in series [1], the EC50 was > 260 µM (inactive). Take `CCN(C(=O)COC(=O)c1c2c(nc3ccccc13)/C(=C/c1ccccc1)CC(C)C2)C1CCS(=O)(=O)C1` (stereo not given): the EC50 in series [1] is 14.3 µM (active). Regarding `O=C(CS(=O)(=O)c1cn(Cc2ccc(Cl)cc2)c2ccccc12)N1CCOCC1`, the IC50 on Coagulation factor XII was > 50 µM (inactive). With `Nc1ccccc1Oc1ncc(C(F)(F)F)cc1Cl`, the AC50 entry at Cytochrome P450 2C9 is “inconclusive”.

Regarding `Cc1ccc(C(=O)NCCNc2ccc(Cl)cc2[N+](=O)[O-])o1`, the AC50 on Cytochrome P450 2D6 was 20 µM (inconclusive). In addition, the IC50 at Coagulation factor XII was > 50 µM (inactive). `O=C(CSC1=NCCN1)Nc1cccc(C(F)(F)F)c1`: the EC50 in [1] was > 260 µM (inactive). Take `COc1cc2c(cc1OC)C(=O)N1[C@H]3c4ccccc4OC[C@@H]3[C@H](c3ccccc3)[C@]1(C)C(=O)N2`: the AC50 in series [2] was 9.07 µM (active).

With `Cc1nc(-c2ccc(Cl)cc2)sc1C(=O)CBr`, the concentration for a half-maximal effect (EC50) in series [1] was 70.2 µM (active). As to `CCCc1noc2c1C(c1ccoc1)C(C#N)=C(N)N2` (stereo not given), the EC50 in series [3] is > 112 µM (not active); at Protein RecA, 1.06 µM (active); in series [4], > 112 µM (not active). In addition, the AC50 in [5] is 157 µM (active). Regarding `O=C(CF)NC(NC(S)=Nc1ccccc1O)C(Cl)(Cl)Cl` (stereo not given), the EC50 in series [1] is > 260 µM (inactive). For `COCCNc1cc(-c2ccccc2CN(C)C)ncn1`, the figures for the half-maximal activity concentration (AC50) on Cytochrome P450 2D6 and at Cytochrome P450 2C9 were 31.6 µM (inconclusive) and “inconclusive”, respectively. Consider `Cn1nnnc1SCCNC/C=C/c1ccccc1`, for which the EC50 in [1] is > 260 µM (inactive). As to `COc1ccccc1NC(=O)c1ccc(-n2cccn2)nc1`, the AC50 at Cytochrome P450 2C19 was 25.1 µM (inconclusive); at Cytochrome P450 2C9, “inconclusive”.

For `Cc1csc(NC(=O)C(CC(C)C)NS(=O)(=O)c2ccc3c(c2)oc(=O)n3C)n1` (stereo not given), on Coagulation factor XII, the IC50 was > 50 µM (inactive).

Regarding `CSc1nc(S(=O)(=O)c2ccc(C)cc2)c(Cl)s1`, the EC50 in [1] is > 260 µM (inactive). `NC(=O)c1c(N)sc2c1CCC2`: at Coagulation factor XII, the IC50 is > 50 µM (inactive).

For `Cc1nc(O)nc(O)c1/C=N/NC(=O)[C@@H](N)CC(C)C`, the IC50 at Coagulation factor XII is > 50 µM (inactive).

In the case of `Cc1cc(C(=O)CC#N)c(C)n1CC(F)(F)F`, the AC50 was 22.4 µM (inconclusive) on Cytochrome P450 2C19 and “inconclusive” at Cytochrome P450 2C9. As for `Cc1ccc2c(c1)N(CCC(=O)NCC1CCCO1)C(=O)CO2` (stereo not given), the values for the AC50 at Cytochrome P450 3A4 and on Cytochrome P450 2C9 were 25.1 µM (inconclusive) and “inconclusive”, respectively.

Usually AC50 stands for the concentration giving half of the maximal activity seen. The term EC50 denotes the concentration needed to bring the measured effect to its halfway point. In general, IC50 refers to the concentration that inhibits the measured activity by half.

The values are drawn from ChEMBL document CHEMBL1201862, “PubChem BioAssay data set” (2004).
